Tested on: HSV-1
Assay: HSV-1-GFP infection of human PILR-transfected CHO-K1 cells with acyclovir as control (Example 3), GFP expression 18 hours later
Assay type: cell-based
Settings: acyclovir 100 μM or 500 μM, or mAb 10 μg/ml, added 30 minutes before virus; FIG. 10
Procedure: HSV-1-GFP of 1.5×10^6 PFU was added to 5×10^4 CHO-K1 cells to which human PILR had been transfected, and expression of GFP was analyzed 18 hours later.
30 minutes before adding the virus, 100 μM or 500 μM of acyclovir, or 10 μg/ml of anti-human PILR mAb (M4) was added, and a ratio of infection with the virus was shown in FIG. 10 with a ratio of infection of cells to which nothing had been added (“control” in FIG. 10) being 100%.

Nc1nc2c(ncn2COCCO)c(=O)[nH]1 [acyclovir]
inhibition of infection with HSV (ratio of infection, control = 100%): did not inhibit infection

From patent US20100129347A1, “HERPES VIRUS INFECTION INHIBITOR, METHOD FOR INHIBITING INFECTION WITH HERPES VIRUS, AND USE THEREOF” (Osaka University, priority 2007, published 2010)
